Here are results for 25 molecules from patent US20220135591A1, “HETEROCYCLIC COMPOUNDS AS INHIBITORS OF MONOACYLGLYCEROL LIPASE (MAGL)” (Hoffmann-La Roche Inc., priority 2019, published 2022).

For this experiment, the target named is T1, MAGL (Homo sapiens, UniProt Q99685).
T1 sequence (Q99685 1-303): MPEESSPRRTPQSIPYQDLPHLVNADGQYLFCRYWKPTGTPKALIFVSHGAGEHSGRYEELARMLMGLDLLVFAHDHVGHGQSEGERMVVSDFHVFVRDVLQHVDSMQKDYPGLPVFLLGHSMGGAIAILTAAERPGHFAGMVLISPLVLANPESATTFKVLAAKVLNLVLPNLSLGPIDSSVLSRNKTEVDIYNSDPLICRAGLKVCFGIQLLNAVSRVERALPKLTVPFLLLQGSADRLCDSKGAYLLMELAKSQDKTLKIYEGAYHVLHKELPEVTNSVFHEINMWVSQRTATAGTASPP
In words: 2-AG assay: MAGL inhibitory activity by hydrolysis of 2-arachidonoylglycerol to arachidonic acid, mass spectrometry. The note with it: 2-AG assay (values marked [b]). It is filed as biochemical. How it is done: Alternatively, compounds were profiled for MAGL inhibitory activity by determining the enzymatic activity by following the hydrolysis of the natural substrate 2-arachidonoylglycerol (2-AG) resulting in arachidonic acid, which can be followed by mass spectrometry. This assay is hereinafter abbreviated “2-AG assay”.
The 2-AG assay was carried out in 384 well assay plates (PP, Greiner Cat #784201) in a total volume of 20 μL. Compound dilutions were made in 100% DMSO (VWR Chemicals 23500.297) in a polypropylene plate in 3-fold dilution steps to give a final concentration range in the assay from 12.5 μM to […]. 0.25 μL compound dilutions (100% DMSO) were added to 9 μL MAGL in assay buffer (50 mM TRIS (GIBCO, 15567-027), 1 mM EDTA (Fluka, 03690-100 mL), 0.01% (v/v) Tween. After shaking, the plate was incubated for 15 min at RT. To start the reaction, 10 μL 2-arachidonoylglycerol in assay buffer was added. The final concentrations in the assay was […] and 8 μM 2-arachidonoylglyerol. After shaking and 30 min incubation at RT, the reaction was quenched by the addition of 40 μL of ACN containing 4 μM of d8-arachidonic acid. The amount of arachidonic acid was traced by an online SPE system (Agilent Rapidfire) coupled to a triple quadrupole mass spectrometer (Agilent 6460). A C18 SPE cartridge (G9205A) was used in an ACN/water liquid setup. The mass spectrometer was operated in negative electrospray mode following the mass transitions 303.1→259.1 for arachidonic acid and 311.1→267.0 for d8-arachidonic acid. The activity of the compounds was calculated based on the ratio of intensities [arachidonic acid/d8-arachidonic acid].
Regarding `COc1cc(C(=O)N2CCN(c3nc4nc(Cl)ccc4o3)CC2)ccc1-c1ncn(C(C)(C)C)n1` [Example 124, (4-(1-(tert-butyl)-1H-1,2,4-triazol-3-yl)-3-methoxyphenyl)(4-(5-chlorooxazolo[4,5-b]pyridin-2-yl)piperazin-1-yl)methanone], the IC50 was 81 nM.
With `O=C(c1ccc(-c2cn(CC3(F)CC3)nn2)cc1)N1CCN(c2nc3nc(Cl)ccc3o2)CC1` [Example 125, (4-(5-chlorooxazolo[4,5-b]pyridin-2-yl)piperazin-1-yl)(4-(1-((1-fluorocyclopropyl)methyl)-1H-1,2,3-triazol-4-yl)phenyl)methanone], the IC50 was 121 nM.
Molecule `Cc1ccc2oc(N3CCN(C(=O)c4ccc(-c5cn(CC6(F)CC6)nn5)cc4)CC3)nc2n1` [Example 126, (4-(1-((1-fluorocyclopropyl)methyl)-1H-1,2,3-triazol-4-yl)phenyl)(4-(5-methyloxazolo[4,5-b]pyridin-2-yl)piperazin-1-yl)methanone] registered an IC50 of 472 nM.
`Cc1ccc2oc(N3CCN(C(=O)c4ccc(-c5nc(C(C)(C)C)nn5C)cc4)CC3)nc2n1` [Example 127, [4-(5-tert-butyl-2-methyl-1,2,4-triazol-3-yl)phenyl]-[4-(5-methyloxazolo[4,5-b]pyridin-2-yl)piperazin-1-yl]methanone] came in with an IC50 of 228 nM.
The molecule `Cc1ccc2oc(N3CCN(C(=O)c4cnc(-n5cnc(C(C)(C)C)n5)c(C)c4)CC3)nc2n1` [Example 128, [6-(3-tert-butyl-1,2,4-triazol-1-yl)-5-methylpyridin-3-yl]-[4-(5-methyl-[1,3]oxazolo[4,5-b]pyridin-2-yl)piperazin-1-yl]methanone] displayed an IC50 of 107 nM.
To `Cc1cc(C(=O)N2CCN(c3nc4nc(Cl)ccc4o3)CC2)cnc1-n1cnc(C(C)(C)C)n1` [Example 129, [6-(3-tert-butyl-1,2,4-triazol-1-yl)-5-methylpyridin-3-yl]-[4-(5-chloro-[1,3]oxazolo[4,5-b]pyridin-2-yl)piperazin-1-yl]methanone] belongs 52 nM; to `Cc1ccc2oc(N3CCN(C(=O)c4cnc(-n5cc(C(C)(C)C)cn5)c(C)c4)CC3)nc2n1` [Example 130, [6-(4-tert-butylpyrazol-1-yl)-5-methylpyridin-3-yl]-[4-(5-methyl-[1,3]oxazolo[4,5-b]pyridin-2-yl)piperazin-1-yl]methanone], 8 nM; to `CC(C)(C#N)Cn1cc(-c2ccc(C(=O)N3CCN(c4nc5nc(Cl)ccc5o4)CC3)cc2)nn1` [Example 131, 3-[4-[4-[4-(5-chlorooxazolo[4,5-b]pyridin-2-yl)piperazine-1-carbonyl]phenyl]triazol-1-yl]-2,2-dimethyl-propanenitrile], 35 nM.
As to `CC(C)(F)Cn1cc(-c2ccc(C(=O)N3CCN(c4nc5nc(Cl)ccc5o4)CC3)cc2)nn1` [Example 132, (4-(5-chlorooxazolo[4,5-b]pyridin-2-yl)piperazin-1-yl)(4-(1-(2-fluoro-2-methylpropyl)-1H-1,2,3-triazol-4-yl)phenyl)methanone], the IC50 came out at 49 nM.
The same measure for `Cc1ccc2oc(N3CCN(C(=O)c4ccc(-c5cn(CC(C)(C)F)nn5)cc4)CC3)nc2n1` [Example 133, (4-(1-(2-fluoro-2-methylpropyl)-1H-1,2,3-triazol-4-yl)phenyl)(4-(5-methyloxazolo[4,5-b]pyridin-2-yl)piperazin-1-yl)methanone]: 94 nM.
The same measure for `CC(C)(CF)n1cc(-c2ccc(C(=O)N3CCN(c4nc5nc(Cl)ccc5o4)CC3)cc2)nn1` [Example 134, (4-(5-chlorooxazolo[4,5-b]pyridin-2-yl)piperazin-1-yl)(4-(1-(1-fluoro-2-methylpropan-2-yl)-1H-1,2,3-triazol-4-yl)phenyl)methanone]: 48 nM; for `Cc1ccc2oc(N3CCN(C(=O)c4ccc(-c5cn(C(C)(C)CF)nn5)cc4)CC3)nc2n1` [Example 135, (4-(1-(1-fluoro-2-methylpropan-2-yl)-1H-1,2,3-triazol-4-yl)phenyl)(4-(5-methyloxazolo[4,5-b]pyridin-2-yl)piperazin-1-yl)methanone]: 116 nM; for `CC(C)(C#N)Cn1ncc(-c2ccc(C(=O)N3CCN(c4nc5nc(Cl)ccc5o4)CC3)cc2)n1` [Example 136, 3-[4-[4-[4-(5-chlorooxazolo[4,5-b]pyridin-2-yl)piperazine-1-carbonyl]phenyl]triazol-2-yl]-2,2-dimethyl-propanenitrile]: 34 nM.
To `Cc1nc(C(=O)N2CCN(c3nc4nc(Cl)ccc4o3)CC2)cnc1OCC1(C(F)(F)F)CC1` [Example 137, [4-(5-chlorooxazolo[4,5-b]pyridin-2-yl)piperazin-1-yl]-[6-methyl-5-[[1-(trifluoromethyl)cyclopropyl]methoxy]pyrazin-2-yl]methanone] belongs 34 nM; to `COc1cc(C(=O)N2CCN(c3nc4nc(Cl)ccc4o3)CC2)cnc1OCC1(C(F)(F)F)CC1` [Example 138, [4-(5-chlorooxazolo[4,5-b]pyridin-2-yl)piperazin-1-yl]-[5-methoxy-6-[[1-(trifluoromethyl)cyclopropyl]methoxy]-3-pyridyl]methanone], 183 nM; to `Cc1ccc2oc(N3CCN(C(=O)c4ccc(OCC5(C(F)(F)F)CC5)c(C)n4)CC3)nc2n1` [Example 139, [4-(5-methyloxazolo[4,5-b]pyridin-2-yl)piperazin-1-yl]-[6-methyl-5-[[1-(trifluoromethyl)cyclopropyl]methoxy]-2-pyridyl]methanone], 387 nM.
Turning to `Cc1nc(C(=O)N2CCN(c3nc4nc(Cl)ccc4o3)CC2)ccc1OCC1(C(F)(F)F)CC1` [Example 140, [4-(5-chlorooxazolo[4,5-b]pyridin-2-yl)piperazin-1-yl]-[6-methyl-5-[[1-(trifluoromethyl)cyclopropyl]methoxy]-2-pyridyl]methanone], it took 326 nM to reach half-maximal inhibition (IC50).
The same measure for `Cc1ccc2oc(N3CCN(C(=O)c4cnc(OCC5(C)CC5)c(F)c4)CC3)nc2n1` [Example 148, (5-fluoro-6-((1-methylcyclopropyl)methoxy)pyridin-3-yl)(4-(5-methyloxazolo[4,5-b]pyridin-2-yl)piperazin-1-yl)methanone]: 226 nM.
To `CC1(COc2ncc(C(=O)N3CCN(c4nc5nc(Cl)ccc5o4)CC3)cc2Cl)CC1` [Example 149, (5-chloro-6-((1-methylcyclopropyl)methoxy)pyridin-3-yl)(4-(5-chlorooxazolo[4,5-b]pyridin-2-yl)piperazin-1-yl)methanone] belongs 20 nM; to `Cc1ccc2oc(N3CCN(C(=O)c4cnc(OCC5(C(F)(F)F)CC5)c(F)c4)CC3)nc2n1` [Example 150, (5-fluoro-6-((1-(trifluoromethyl)cyclopropyl)methoxy)pyridin-3-yl)(4-(5-methyloxazolo[4,5-b]pyridin-2-yl)piperazin-1-yl)methanone], 46 nM.
The same measure for `Cc1ccc2oc(N3CCN(C(=O)c4cnc(OCC5(C(F)(F)F)CC5)c(OCC5(C(F)(F)F)CC5)c4)CC3)nc2n1` [Example 151, (5,6-bis((1-(trifluoromethyl)cyclopropyl)methoxy)pyridin-3-yl)(4-(5-methyloxazolo[4,5-b]pyridin-2-yl)piperazin-1-yl)methanone]: 55 nM; for `O=C(c1cnc(OCC2(C(F)(F)F)CC2)c(Cl)c1)N1CCN(c2nc3nc(Cl)ccc3o2)CC1` [Example 152, (5-chloro-6-((1-(trifluoromethyl)cyclopropyl)methoxy)pyridin-3-yl)(4-(5-chlorooxazolo[4,5-b]pyridin-2-yl)piperazin-1-yl)methanone]: 15 nM; for `Cc1cc(C(=O)N2CCN(c3nc4nc(Cl)ccc4o3)CC2)cnc1OCC1(C(F)(F)F)CC1` [Example 153, (4-(5-chlorooxazolo[4,5-b]pyridin-2-yl)piperazin-1-yl)(5-methyl-6-((1-(trifluoromethyl)cyclopropyl)methoxy)pyridin-3-yl)methanone]: 10 nM.
`O=C(c1cnc(OCC2(C(F)(F)F)CC2)c(C(F)(F)F)c1)N1CCN(c2nc3nc(Cl)ccc3o2)CC1` [Example 154, (4-(5-chlorooxazolo[4,5-b]pyridin-2-yl)piperazin-1-yl)(5-(trifluoromethyl)-6-((1-(trifluoromethyl)cyclopropyl)methoxy)pyridin-3-yl)methanone] yielded an IC50 of 8 nM.
The same measure for `Cc1cc(C(=O)N2CCN(c3nc4nc(Cl)ccc4o3)CC2)cnc1OCC1CC1` [Example 155, (4-(5-chlorooxazolo[4,5-b]pyridin-2-yl)piperazin-1-yl)(6-(cyclopropylmethoxy)-5-methylpyridin-3-yl)methanone]: 90 nM.
